Publication PMC4767141, “Discovery of Potent, Orally Bioavailable, Small-Molecule Inhibitors of WNT Signaling from a Cell-Based Pathway Screen” (Journal of Medicinal Chemistry, 2015)

How the values were obtained:
[1] = target: T1, β2 (h) (Homo sapiens, UniProt P07550); experiment: CEREP binding panel; conditions: agonist radioligand, read-out: % Inhibition of Control Specific Binding
T1 construct: purchased Millipore KinaseProfiler (kinases); Cerep (receptors and ion channels)

[2] = target: T2, TLK2 (Homo sapiens, UniProt Q86UE8); experiment: Millipore kinase panel; format: biochemical; conditions: read-out: % Control
T2 construct: purchased Millipore KinaseProfiler (kinases); Cerep (receptors and ion channels)

[3] = target: T3, ARK5 (Homo sapiens, UniProt O60285); experiment: Millipore kinase panel; format: biochemical; conditions: read-out: % Control
T3 construct: purchased Millipore KinaseProfiler (kinases); Cerep (receptors and ion channels)

[4] = target: T4, EGFR (Homo sapiens, UniProt P00533); experiment: Millipore kinase panel; format: biochemical; conditions: read-out: % Control
T4 construct: purchased Millipore KinaseProfiler (kinases); Cerep (receptors and ion channels)

[5] = target: T5, GRK7 (Homo sapiens, UniProt Q8WTQ7); experiment: Millipore kinase panel; format: biochemical; conditions: read-out: % Control
T5 construct: purchased Millipore KinaseProfiler (kinases); Cerep (receptors and ion channels)

[6] = target: T6, BRK (Homo sapiens, UniProt Q13882); experiment: Millipore kinase panel; format: biochemical; conditions: read-out: % Control
T6 construct: purchased Millipore KinaseProfiler (kinases); Cerep (receptors and ion channels)

[7] = target: T7, MKK7BETA (Homo sapiens, UniProt O14733); experiment: Millipore kinase panel; format: biochemical; conditions: read-out: % Control
T7 construct: purchased Millipore KinaseProfiler (kinases); Cerep (receptors and ion channels)

[8] = target: T8, NEK6 (Homo sapiens, UniProt Q9HC98); experiment: Millipore kinase panel; format: biochemical; conditions: read-out: % Control
T8 construct: purchased Millipore KinaseProfiler (kinases); Cerep (receptors and ion channels)

[9] = target: T9, CK2 (Homo sapiens, UniProt P68400); experiment: Millipore kinase panel; format: biochemical; conditions: read-out: % Control
T9 construct: purchased Millipore KinaseProfiler (kinases); Cerep (receptors and ion channels)

[10] = target: T10, GRK5 (Homo sapiens, UniProt P34947); experiment: Millipore kinase panel; format: biochemical; conditions: read-out: % Control
T10 construct: purchased Millipore KinaseProfiler (kinases); Cerep (receptors and ion channels)

[11] = target: T11, ULK2 (Homo sapiens, UniProt Q8IYT8); experiment: Millipore kinase panel; format: biochemical; conditions: read-out: % Control
T11 construct: purchased Millipore KinaseProfiler (kinases); Cerep (receptors and ion channels)

[12] = target: T12, PAK6 (Homo sapiens, UniProt Q9NQU5); experiment: Millipore kinase panel; format: biochemical; conditions: read-out: % Control
T12 construct: purchased Millipore KinaseProfiler (kinases); Cerep (receptors and ion channels)

[13] = target: T13, 5-HT6 (h) (Homo sapiens, UniProt P50406); experiment: CEREP binding panel; conditions: agonist radioligand, read-out: % Inhibition of Control Specific Binding
T13 construct: purchased Millipore KinaseProfiler (kinases); Cerep (receptors and ion channels)

[14] = target: T14, Y1 (h) (Homo sapiens, UniProt P25929); experiment: CEREP binding panel; conditions: agonist radioligand, read-out: % Inhibition of Control Specific Binding
T14 construct: purchased Millipore KinaseProfiler (kinases); Cerep (receptors and ion channels)

[15] = target: T15, 5-HT7 (h) (Homo sapiens, UniProt P34969); experiment: CEREP binding panel; conditions: agonist radioligand, read-out: % Inhibition of Control Specific Binding
T15 construct: purchased Millipore KinaseProfiler (kinases); Cerep (receptors and ion channels)

[16] = target: T16, CDK2/CYCLINA (Homo sapiens, UniProt P24941); experiment: Millipore kinase panel; format: biochemical; conditions: read-out: % Control
T16 construct: purchased Millipore KinaseProfiler (kinases); Cerep (receptors and ion channels)

[17] = target: T17, HIPK3 (Homo sapiens, UniProt Q9H422); experiment: Millipore kinase panel; format: biochemical; conditions: read-out: % Control
T17 construct: purchased Millipore KinaseProfiler (kinases); Cerep (receptors and ion channels)

[18] = target: T18, EPHA8 (Homo sapiens, UniProt P29322); experiment: Millipore kinase panel; format: biochemical; conditions: read-out: % Control
T18 construct: purchased Millipore KinaseProfiler (kinases); Cerep (receptors and ion channels)

[19] = tested on: Ca2+ channel (L, verapamil site) (phenylalkylamine); experiment: CEREP binding panel; conditions: 10 μM, antagonist radioligand
[20] = target: T19, EPHA5 (Homo sapiens, UniProt P54756); experiment: Millipore kinase panel; format: biochemical; conditions: read-out: % Control
T19 construct: purchased Millipore KinaseProfiler (kinases); Cerep (receptors and ion channels)

[21] = target: T20, CCR1 (h) (Homo sapiens, UniProt P32246); experiment: CEREP binding panel; conditions: agonist radioligand, read-out: % Inhibition of Control Specific Binding
T20 construct: purchased Millipore KinaseProfiler (kinases); Cerep (receptors and ion channels)

[22] = target: T21, PAK2 (Homo sapiens, UniProt Q13177); experiment: Millipore kinase panel; format: biochemical; conditions: read-out: % Control
T21 construct: purchased Millipore KinaseProfiler (kinases); Cerep (receptors and ion channels)

[23] = target: T22, FLT1 (Homo sapiens, UniProt P17948); experiment: Millipore kinase panel; format: biochemical; conditions: read-out: % Control
T22 construct: purchased Millipore KinaseProfiler (kinases); Cerep (receptors and ion channels)

[24] = target: T23, IR, ACTIVATED (Homo sapiens, UniProt P06213); experiment: Millipore kinase panel; format: biochemical; conditions: read-out: % Control
T23 construct: purchased Millipore KinaseProfiler (kinases); Cerep (receptors and ion channels)

[25] = target: T24, MUSK (Homo sapiens, UniProt O15146); experiment: Millipore kinase panel; format: biochemical; conditions: read-out: % Control
T24 construct: purchased Millipore KinaseProfiler (kinases); Cerep (receptors and ion channels)

[26] = Caco-2 Papp determination; format: in vitro ADME, human; conditions: for Papp at 2 h, 1 μM: human, Caco-2, pH 7.4
[27] = target: T25, MST2 (Homo sapiens, UniProt Q13188); experiment: Millipore kinase panel; format: biochemical; conditions: read-out: % Control
T25 construct: purchased Millipore KinaseProfiler (kinases); Cerep (receptors and ion channels)

[28] = target: T26, FGFR2 (Homo sapiens, UniProt P21802); experiment: Millipore kinase panel; format: biochemical; conditions: read-out: % Control
T26 construct: purchased Millipore KinaseProfiler (kinases); Cerep (receptors and ion channels)

[29] = target: T27, ROS (Homo sapiens, UniProt P08922); experiment: Millipore kinase panel; format: biochemical; conditions: read-out: % Control
T27 construct: purchased Millipore KinaseProfiler (kinases); Cerep (receptors and ion channels)

[30] = target: T28, TXK (Homo sapiens, UniProt P42681); experiment: Millipore kinase panel; format: biochemical; conditions: read-out: % Control
T28 construct: purchased Millipore KinaseProfiler (kinases); Cerep (receptors and ion channels)

[31] = target: T29, DAPK2 (Homo sapiens, UniProt Q9UIK4); experiment: Millipore kinase panel; format: biochemical; conditions: read-out: % Control
T29 construct: purchased Millipore KinaseProfiler (kinases); Cerep (receptors and ion channels)

[32] = target: T30, ABL (Homo sapiens, UniProt P00519); experiment: Millipore kinase panel; format: biochemical; conditions: read-out: % Control
T30 construct: purchased Millipore KinaseProfiler (kinases); Cerep (receptors and ion channels)

[33] = target: T31, BRSK1 (Homo sapiens, UniProt Q8TDC3); experiment: Millipore kinase panel; format: biochemical; conditions: read-out: % Control
T31 construct: purchased Millipore KinaseProfiler (kinases); Cerep (receptors and ion channels)

[34] = target: T32, ZAP-70 (Homo sapiens, UniProt P43403); experiment: Millipore kinase panel; format: biochemical; conditions: read-out: % Control
T32 construct: purchased Millipore KinaseProfiler (kinases); Cerep (receptors and ion channels)

[35] = target: T33, PKA (Homo sapiens, UniProt P17612); experiment: Millipore kinase panel; format: biochemical; conditions: read-out: % Control
T33 construct: purchased Millipore KinaseProfiler (kinases); Cerep (receptors and ion channels)

[36] = target: T34, CK1GAMMA1 (Homo sapiens, UniProt Q9HCP0); experiment: Millipore kinase panel; format: biochemical; conditions: read-out: % Control
T34 construct: purchased Millipore KinaseProfiler (kinases); Cerep (receptors and ion channels)

[37] = target: T35, 5-HT3 (h) (Homo sapiens, UniProt P46098); experiment: CEREP binding panel; conditions: antagonist radioligand, read-out: % Inhibition of Control Specific Binding
T35 construct: purchased Millipore KinaseProfiler (kinases); Cerep (receptors and ion channels)

[38] = target: T36, TAK1 (Homo sapiens, UniProt O43318); experiment: Millipore kinase panel; format: biochemical; conditions: read-out: % Control
T36 construct: purchased Millipore KinaseProfiler (kinases); Cerep (receptors and ion channels)

[39] = target: T37, MRCKALPHA (Homo sapiens, UniProt Q5VT25); experiment: Millipore kinase panel; format: biochemical; conditions: read-out: % Control
T37 construct: purchased Millipore KinaseProfiler (kinases); Cerep (receptors and ion channels)

[40] = target: T38, GAL2 (h) (Homo sapiens, UniProt O43603); experiment: CEREP binding panel; conditions: agonist radioligand, read-out: % Inhibition of Control Specific Binding
T38 construct: purchased Millipore KinaseProfiler (kinases); Cerep (receptors and ion channels)

[41] = tested on: α2 (non-selective); experiment: CEREP binding panel; conditions: 10 μM, antagonist radioligand
[42] = target: T39, CDK5/P25 (Homo sapiens, UniProt Q00535); experiment: Millipore kinase panel; format: biochemical; conditions: read-out: % Control
T39 construct: purchased Millipore KinaseProfiler (kinases); Cerep (receptors and ion channels)

[43] = target: T40, FGR (Homo sapiens, UniProt P09769); experiment: Millipore kinase panel; format: biochemical; conditions: read-out: % Control
T40 construct: purchased Millipore KinaseProfiler (kinases); Cerep (receptors and ion channels)

[44] = target: T41, M2 (h) (Homo sapiens, UniProt P08172); experiment: CEREP binding panel; conditions: antagonist radioligand, read-out: % Inhibition of Control Specific Binding
T41 construct: purchased Millipore KinaseProfiler (kinases); Cerep (receptors and ion channels)

T14 sequence (P25929 whole entry): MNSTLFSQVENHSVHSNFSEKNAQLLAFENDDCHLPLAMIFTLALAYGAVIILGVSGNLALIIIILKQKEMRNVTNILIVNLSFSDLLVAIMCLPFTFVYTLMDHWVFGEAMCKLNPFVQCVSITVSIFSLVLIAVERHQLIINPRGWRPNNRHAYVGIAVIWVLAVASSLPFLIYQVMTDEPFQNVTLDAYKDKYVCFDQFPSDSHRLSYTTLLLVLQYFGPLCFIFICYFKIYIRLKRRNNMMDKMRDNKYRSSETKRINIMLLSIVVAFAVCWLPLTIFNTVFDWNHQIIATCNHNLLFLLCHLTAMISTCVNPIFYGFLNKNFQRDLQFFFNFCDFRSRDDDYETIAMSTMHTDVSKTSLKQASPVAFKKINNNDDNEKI
T6 sequence (Q13882 whole entry): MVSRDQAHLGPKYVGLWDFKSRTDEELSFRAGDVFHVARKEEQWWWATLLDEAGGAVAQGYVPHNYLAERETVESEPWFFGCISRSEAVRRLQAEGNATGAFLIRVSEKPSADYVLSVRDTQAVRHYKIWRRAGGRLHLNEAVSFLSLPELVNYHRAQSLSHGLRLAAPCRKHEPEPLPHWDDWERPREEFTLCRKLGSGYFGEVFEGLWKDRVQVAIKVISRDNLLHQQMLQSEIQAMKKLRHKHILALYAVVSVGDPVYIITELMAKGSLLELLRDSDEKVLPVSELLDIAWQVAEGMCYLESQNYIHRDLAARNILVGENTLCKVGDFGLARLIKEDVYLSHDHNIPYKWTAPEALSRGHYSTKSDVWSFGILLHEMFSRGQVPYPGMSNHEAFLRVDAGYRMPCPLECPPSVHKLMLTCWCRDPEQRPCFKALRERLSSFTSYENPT
T36 sequence (O43318 1-303 limits assumed): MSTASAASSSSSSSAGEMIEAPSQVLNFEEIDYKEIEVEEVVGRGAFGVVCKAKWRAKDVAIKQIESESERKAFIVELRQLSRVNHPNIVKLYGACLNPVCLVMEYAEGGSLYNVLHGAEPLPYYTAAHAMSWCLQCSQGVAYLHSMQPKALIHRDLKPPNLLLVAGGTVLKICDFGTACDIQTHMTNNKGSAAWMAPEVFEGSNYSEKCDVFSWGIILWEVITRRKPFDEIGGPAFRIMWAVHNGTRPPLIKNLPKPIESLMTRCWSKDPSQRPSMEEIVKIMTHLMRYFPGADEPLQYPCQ
T18 sequence (P29322 28-1005): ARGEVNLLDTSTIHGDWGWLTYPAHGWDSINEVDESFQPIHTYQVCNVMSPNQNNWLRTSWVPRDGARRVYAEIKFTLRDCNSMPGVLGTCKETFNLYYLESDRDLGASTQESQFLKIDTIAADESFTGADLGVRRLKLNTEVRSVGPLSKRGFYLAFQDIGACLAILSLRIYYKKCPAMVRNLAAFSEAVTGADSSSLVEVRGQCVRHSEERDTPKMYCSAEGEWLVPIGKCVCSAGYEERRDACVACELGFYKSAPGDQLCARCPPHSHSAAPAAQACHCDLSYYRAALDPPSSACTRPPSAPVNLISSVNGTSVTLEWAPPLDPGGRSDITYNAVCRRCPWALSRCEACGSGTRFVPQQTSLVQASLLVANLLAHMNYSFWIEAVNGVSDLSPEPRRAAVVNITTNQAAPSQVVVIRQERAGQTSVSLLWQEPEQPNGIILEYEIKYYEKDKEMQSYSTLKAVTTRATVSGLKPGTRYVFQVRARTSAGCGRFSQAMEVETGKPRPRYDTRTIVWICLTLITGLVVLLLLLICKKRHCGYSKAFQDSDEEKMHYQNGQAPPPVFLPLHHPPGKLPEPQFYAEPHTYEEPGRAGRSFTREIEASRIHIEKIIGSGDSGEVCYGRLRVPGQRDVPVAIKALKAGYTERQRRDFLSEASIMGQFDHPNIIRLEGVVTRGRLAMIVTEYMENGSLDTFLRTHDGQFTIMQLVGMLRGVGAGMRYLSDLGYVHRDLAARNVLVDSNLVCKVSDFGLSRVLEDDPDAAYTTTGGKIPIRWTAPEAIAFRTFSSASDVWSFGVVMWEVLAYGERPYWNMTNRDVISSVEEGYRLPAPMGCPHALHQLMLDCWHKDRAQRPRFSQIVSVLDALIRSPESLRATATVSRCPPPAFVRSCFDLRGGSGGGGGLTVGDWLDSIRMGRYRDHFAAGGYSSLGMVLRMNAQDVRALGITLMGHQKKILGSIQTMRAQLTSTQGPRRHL
T7 sequence (O14733 whole entry): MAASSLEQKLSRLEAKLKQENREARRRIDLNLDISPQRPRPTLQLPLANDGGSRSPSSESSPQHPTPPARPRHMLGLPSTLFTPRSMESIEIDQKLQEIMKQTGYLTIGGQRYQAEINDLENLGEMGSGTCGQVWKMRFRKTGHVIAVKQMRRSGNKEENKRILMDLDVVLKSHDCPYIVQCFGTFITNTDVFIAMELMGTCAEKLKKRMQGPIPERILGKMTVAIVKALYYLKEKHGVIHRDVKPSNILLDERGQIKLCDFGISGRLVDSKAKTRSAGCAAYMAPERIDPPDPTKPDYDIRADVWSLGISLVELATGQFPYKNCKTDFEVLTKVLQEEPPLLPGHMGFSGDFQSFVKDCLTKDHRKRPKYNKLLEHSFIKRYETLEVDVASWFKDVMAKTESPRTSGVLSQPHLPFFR
T24 sequence (O15146 24-869): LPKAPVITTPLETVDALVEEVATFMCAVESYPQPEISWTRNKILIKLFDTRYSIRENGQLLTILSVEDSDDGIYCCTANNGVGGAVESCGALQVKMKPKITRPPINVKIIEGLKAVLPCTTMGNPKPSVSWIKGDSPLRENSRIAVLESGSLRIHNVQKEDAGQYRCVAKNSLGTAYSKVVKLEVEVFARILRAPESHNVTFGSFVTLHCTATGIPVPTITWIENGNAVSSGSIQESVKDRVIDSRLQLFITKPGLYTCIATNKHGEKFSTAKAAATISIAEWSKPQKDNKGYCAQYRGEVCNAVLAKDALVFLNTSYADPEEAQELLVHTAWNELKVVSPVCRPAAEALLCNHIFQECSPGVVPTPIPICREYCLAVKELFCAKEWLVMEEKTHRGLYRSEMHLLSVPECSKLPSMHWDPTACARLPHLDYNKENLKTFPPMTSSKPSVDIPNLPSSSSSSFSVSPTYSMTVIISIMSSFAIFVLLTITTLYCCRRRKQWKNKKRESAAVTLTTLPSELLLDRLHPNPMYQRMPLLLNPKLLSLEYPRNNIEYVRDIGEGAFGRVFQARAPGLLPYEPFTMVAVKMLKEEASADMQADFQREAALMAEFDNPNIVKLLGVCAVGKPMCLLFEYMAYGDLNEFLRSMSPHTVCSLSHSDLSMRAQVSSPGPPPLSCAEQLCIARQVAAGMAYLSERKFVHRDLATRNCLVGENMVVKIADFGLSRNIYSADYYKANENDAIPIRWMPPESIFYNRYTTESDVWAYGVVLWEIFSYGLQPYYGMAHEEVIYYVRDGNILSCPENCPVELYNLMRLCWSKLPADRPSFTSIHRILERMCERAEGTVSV
T3 sequence (O60285 whole entry): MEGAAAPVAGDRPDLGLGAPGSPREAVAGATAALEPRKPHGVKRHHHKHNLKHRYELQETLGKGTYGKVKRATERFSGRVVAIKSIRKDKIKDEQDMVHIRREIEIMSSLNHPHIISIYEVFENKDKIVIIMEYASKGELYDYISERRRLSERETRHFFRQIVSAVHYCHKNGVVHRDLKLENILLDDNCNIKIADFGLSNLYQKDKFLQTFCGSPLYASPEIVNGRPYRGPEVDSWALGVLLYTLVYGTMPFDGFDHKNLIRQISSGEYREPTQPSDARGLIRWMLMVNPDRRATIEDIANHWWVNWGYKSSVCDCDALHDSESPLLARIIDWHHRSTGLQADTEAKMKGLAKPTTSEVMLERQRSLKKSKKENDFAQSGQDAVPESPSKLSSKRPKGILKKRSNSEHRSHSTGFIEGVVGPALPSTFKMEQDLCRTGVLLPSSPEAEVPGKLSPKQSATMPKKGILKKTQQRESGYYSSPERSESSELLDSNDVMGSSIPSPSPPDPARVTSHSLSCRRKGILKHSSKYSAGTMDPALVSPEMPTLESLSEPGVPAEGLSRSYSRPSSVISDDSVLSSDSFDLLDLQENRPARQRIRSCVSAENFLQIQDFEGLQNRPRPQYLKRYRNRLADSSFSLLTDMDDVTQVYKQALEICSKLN
T10 sequence (P34947 whole entry): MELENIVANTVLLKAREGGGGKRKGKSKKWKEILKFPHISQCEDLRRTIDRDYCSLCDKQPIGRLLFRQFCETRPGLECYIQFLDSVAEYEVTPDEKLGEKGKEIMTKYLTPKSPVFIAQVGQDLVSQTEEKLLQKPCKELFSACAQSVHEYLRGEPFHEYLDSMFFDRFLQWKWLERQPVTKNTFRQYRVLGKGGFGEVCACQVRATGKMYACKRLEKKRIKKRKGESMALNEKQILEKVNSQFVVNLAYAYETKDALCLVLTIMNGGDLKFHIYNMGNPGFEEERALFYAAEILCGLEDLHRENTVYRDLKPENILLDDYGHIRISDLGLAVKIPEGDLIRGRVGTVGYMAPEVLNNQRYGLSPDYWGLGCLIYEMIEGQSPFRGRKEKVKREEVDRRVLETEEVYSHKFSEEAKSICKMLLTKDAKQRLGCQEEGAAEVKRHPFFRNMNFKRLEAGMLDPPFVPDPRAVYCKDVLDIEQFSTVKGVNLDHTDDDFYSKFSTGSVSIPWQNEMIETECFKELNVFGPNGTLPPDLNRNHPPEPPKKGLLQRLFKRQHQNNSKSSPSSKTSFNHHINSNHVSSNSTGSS
T29 sequence (Q9UIK4 whole entry): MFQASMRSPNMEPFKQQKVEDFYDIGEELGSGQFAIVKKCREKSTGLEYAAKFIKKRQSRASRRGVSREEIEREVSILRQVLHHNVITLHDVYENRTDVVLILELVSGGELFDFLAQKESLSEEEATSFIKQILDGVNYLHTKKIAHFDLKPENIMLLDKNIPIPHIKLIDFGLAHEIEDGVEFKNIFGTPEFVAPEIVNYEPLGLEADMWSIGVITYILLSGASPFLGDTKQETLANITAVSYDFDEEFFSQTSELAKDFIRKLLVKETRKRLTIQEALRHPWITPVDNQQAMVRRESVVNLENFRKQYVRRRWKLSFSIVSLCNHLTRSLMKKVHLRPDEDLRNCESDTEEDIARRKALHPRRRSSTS

SMILES: O=C1NCCC12CCN(c1c(Cl)cncc1-c1ccc(N3CCOCC3)cc1)CC2 [Compound 44, 8-(3-Chloro-5-(4-morpholin-4-ylphenyl)pyridin-4-yl)-2,8-diazaspiro[4.5]decan-1-one]
- inhibition at 10 µM [1]: -3%
- remaining activity at 1 µM [2]: -12%
- remaining activity at 1 µM [3]: -2%
- remaining activity at 1 µM [4]: 5%
- remaining activity at 1 µM [5]: -2%
- remaining activity at 1 µM [6]: 2%
- remaining activity at 1 µM [7]: 17%
- remaining activity at 1 µM [8]: -4%
- remaining activity at 1 µM [9]: 12%
- remaining activity at 1 µM [10]: 0%
- remaining activity at 1 µM [11]: 10%
- remaining activity at 1 µM [12]: 13%
- inhibition at 10 µM [13]: -5%
- inhibition at 10 µM [14]: -10%
- inhibition at 10 µM [15]: 9%
- remaining activity at 1 µM [16]: -9%
- remaining activity at 1 µM [17]: 7%
- remaining activity at 1 µM [18]: -3%
- % Inhibition of Control Specific Binding [19]: 9%
- remaining activity at 1 µM [20]: 11%
- inhibition at 10 µM [21]: 0%
- remaining activity at 1 µM [22]: 12%
- remaining activity at 1 µM [23]: 10%
- remaining activity at 1 µM [24]: 17%
- remaining activity at 1 µM [25]: 10%
- Caco-2 efflux (efflux ratio, ER) [26]: no efflux
- Papp at 2 h, 1 μM [26]: 37 ×10⁻⁶ cm/s
- remaining activity at 1 µM [27]: 1%
- remaining activity at 1 µM [28]: -6%
- remaining activity at 1 µM [29]: 2%
- remaining activity at 1 µM [30]: 4%
- remaining activity at 1 µM [31]: 5%
- remaining activity at 1 µM [32]: 4%
- remaining activity at 1 µM [33]: 5%
- remaining activity at 1 µM [34]: 13%
- remaining activity at 1 µM [35]: 5%
- remaining activity at 1 µM [36]: 2%
- inhibition at 10 µM [37]: -3%
- remaining activity at 1 µM [38]: -3%
- remaining activity at 1 µM [39]: 11%
- inhibition at 10 µM [40]: -22%
- % Inhibition of Control Specific Binding [41]: -1%
- remaining activity at 1 µM [42]: 0%
- remaining activity at 1 µM [43]: 16%
- inhibition at 10 µM [44]: 24%

SMILES: Cn1cc(-c2ccc(-c3cncc(Cl)c3N3CCC4(CCNC4=O)CC3)cc2)cn1 [Compound 74, 8-(3-Chloro-5-(4-(1-methyl-1H-pyrazol-4-yl)phenyl)pyridin-4-yl)-2,8-diazaspiro[4.5]decan-1-one]
- inhibition at 10 µM [1]: 6%
- remaining activity at 1 µM [2]: -9%
- remaining activity at 1 µM [3]: -2%
- remaining activity at 1 µM [4]: 10%
- remaining activity at 1 µM [5]: 7%
- remaining activity at 1 µM [6]: 11%
- remaining activity at 1 µM [7]: 68%
- remaining activity at 1 µM [8]: -10%
- remaining activity at 1 µM [9]: -7%
- remaining activity at 1 µM [10]: -5%
- remaining activity at 1 µM [11]: -2%
- remaining activity at 1 µM [12]: -2%
- inhibition at 10 µM [13]: 3%
- inhibition at 10 µM [14]: -7%
- inhibition at 10 µM [15]: 1%
- remaining activity at 1 µM [16]: -8%
- remaining activity at 1 µM [17]: -2%
- remaining activity at 1 µM [18]: -7%
- % Inhibition of Control Specific Binding [19]: 7%
- remaining activity at 1 µM [20]: 6%
- inhibition at 10 µM [21]: -4%
- remaining activity at 1 µM [22]: -7%
- remaining activity at 1 µM [23]: -5%
- remaining activity at 1 µM [24]: -4%
- remaining activity at 1 µM [25]: 6%
- Papp at 2 h, 1 μM [26]: 24 ×10⁻⁶ cm/s
- remaining activity at 1 µM [27]: 4%
- remaining activity at 1 µM [28]: -6%
- remaining activity at 1 µM [29]: 7%
- remaining activity at 1 µM [30]: -2%
- remaining activity at 1 µM [31]: 13%
- remaining activity at 1 µM [32]: -5%
- remaining activity at 1 µM [33]: -25%
- remaining activity at 1 µM [34]: 6%
- remaining activity at 1 µM [35]: 24%
- remaining activity at 1 µM [36]: -25%
- inhibition at 10 µM [37]: 9%
- remaining activity at 1 µM [38]: 6%
- remaining activity at 1 µM [39]: -4%
- inhibition at 10 µM [40]: 2%
- % Inhibition of Control Specific Binding [41]: 0%
- remaining activity at 1 µM [42]: -21%
- remaining activity at 1 µM [43]: 0%
- inhibition at 10 µM [44]: 38%
